Data from patent publication US20040082031A1, “Inflammatory inhibition factor fwa116” (priority 2001, published 2004).

Test system: expression of Fwa116 in human blood vessel endothelia cell
Assay: Effect of ox-LDL and soybean genistein on expression of Fwa116 (Northern blotting)
Format: cell-based
Conditions: cells treated with ox-LDL (200 μg/mL) and soybean genistein (100 μM) simultaneously, FIG. 3
Description: Low density lipoproteins (LDL) with a density of 1.019 to 1.063 obtained by density gradient centrifugation were oxidized with Cu^2+ for 24 hours, filtrated through a 0.22 μm filter membrane, and stored at 4[…] in a dark place. The value of TBARS was determined and the ox-LDL was separated by electrophoresis on agarose gel. More than 10 nmol/mg of TBARS value and the increase of electrophoretic mobility indicated successful oxidation.
The frozen tube containing human blood vessel endothelia cells was taken out from liquid-nitrogen, and put rapidly into a water bath at 37[…]]. After being melted completely, the cell suspension was inoculated to a 25 mL culture bottle containing 5 mL of RPMI or DMEM with 10% FES. Culture was carried out overnight in an incubator at 37[…] and 5% of CO2 concentration. The medium was replaced on the next day.
When Cells were grown to substantial confluency (with a covering percentage of around 80%), the original medium was discarded. After Cells were rinsed twice with 1× PBS (pH7.4), 0.125% trypsin was added, and the cells were digested for 5-10 minutes at 37 °C. […] The number of cells was counted, and the cell suspension was inoculated to a culture bottle containing 5 mL of RPMI or DMEM with 10% FES to a concentration of 100,000 cells/mL. […]

With `O=c1c(-c2ccc(O)cc2)coc2cc(O)cc(O)c12` [soybean genistein, genistein] the “increase of expression of Fwa116” value was “more than 10 fold”.
